For one assay, the system named is circulating tumor cells. Nature of the assay: Circulating tumor cells per mL of blood. The format is in vivo, mouse. As to conditions: PyMT-transplantation and HT17 xenograft. The method, then:
(§1) Drug Administration. The following drugs were administered in mice: Paclitaxel was given at 10 mg/Kg i.v every 5 days for 2 weeks; Doxorubicin was given at 5 mg/Kg i.v. every 5 days for 2 weeks; Cyclophosphamide was given at 120 mg/Kg i.p. only once; Rebastinib was given at 10 mg/Kg per os, every 3-4 days for 4 weeks.
Circulating Tumor Cells. Mice were anesthetized with 3.5-4.5% isoflurane, and blood was taken from the right ventricle by heart puncture, using 25G needles coated with heparin. Erythrocytes were lysed, using 10 ml of 1×RBC lysis buffer (multi-species, eBioscience). Cancer cells were quantified, as previously described (31, 60).

The test system of assay [1] is Tie2^hi/Vegf^hi macrophages. The assay is described as follows: Macrophage infiltration by multi-channel immunofluorescence (Iba1, Cd31, Tie2, Vegf). The format is in vivo, mouse.
From the text: The functional TMEM sites contain Tie2^hi/Vegf^hi macrophages and invasive tumor cells in perivascular regions (1), and it was independently shown that chemotherapy may promote mobilization of such Tie2^hi monocyte progenitors in primary tumors (8, 10). The Tie2^hi/Vegf^hi macrophage subpopulation was quantified herein using multi-channel immunofluorescence (IF) imaging (FIGS. 1D-F) (10, 14, 34). FIG. 1E illustrates a representative IF image of a Tie2^hi/Vegf^hi macrophage quantified using Cd31, Iba1, Vegf and Tie2 staining.
as §1
(§2) Animals and Animal Procedures. MMTV-PyMT mice were bred in-house at the Albert Einstein College of Medicine (AECOM). Generation of MMTV-PyMT Mena^−/− has been described previously (28). CFP- or Dendra2-labeled mammary carcinoma cells were generated on the FVB background by co-injection of Tg(MMTV-iCRE)1jwp together with Tg(PCAG-loxp-CATstop-loxp-CFP) or Tg(loxP-stop-loxP-PDendra2)jwp plasmids, respectively, by conventional methods in the Albert Einstein Transgenic Mouse Facility. All syngeneic transplantation models were generated through orthotopic transplantation of 1 mm×1 mm tumor chunks, using tumors of 1 cm-diameter from 12-16-week old MMTV-PyMT mena−/− or mena+/+ donor mice into 5-6 week-old FVB recipients. Tumor chunks were implanted on the fourth mammary pad on the left side. The generation of the ER^− HT17 and ER^+ HT33 patient-derived xenografts has been described previously (31). Animal handling and associated procedures were approved by the Institutional Animal Care and Use Committee (IACUC). Additional information is detailed in Supplementary Methods.
Immunofluorescence. Slides were deparaffinized by melting at 60° C. in an oven equipped with a fan for 20 minutes, followed by 2× xylene treatment for 20 minutes. Slides were rehydrated and antigen retrieval was done in 1 mM EDTA (pH 8.0) or 1× citrate buffer (pH 6.0) (Diagnostic BioSystems) at 97° C. for 20 minutes in a conventional steamer. Endogenous peroxidase was blocked by using 0.3% hydrogen peroxide in water, followed by incubation of slides in a blocking buffer solution (10% FBS, 1% BSA, 0.0025% fish skin gelatin in 0.05% PBST) for 60 minutes at room temperature. The following primary antibodies were used in different combinations, depending on the experiment: chicken anti-Mena^INV (0.25 ug/mL, generated in-house in the lab of John S. Condeelis), rabbit anti-Cd31 (1:400; 77699s; Cell Signaling), rabbit anti-Vegf (1:2,000; Rb 9031-PO-A; Thermo), rat anti-Tie2 (1:100; 16-5987-82; eBioscience), rabbit anti-Iba1 (1:6,000; 019-19741; Wako), rat anti-endomucin (1:500; sc-65495; Santa Cruz), rabbit anti-TMR (1:1,000; A-6397; Life Technologies). Secondary antibody treatment was performed using HRP-conjugated antibodies, and was followed by tyramide signal amplification (TSA), using the Perkin Elmer; Opal™ 4-color Fluorescent IHC kit, according to the manufacturer's directions. All slides were imaged on the Pannoramic 250 Flash II digital whole slide scanner, using a 20×0.75NA objective lens. Image analysis was performed in ImageJ, detailed in Supplementary Methods.

Assay [2] deals with TMEM. The assay is described as follows: TMEM score by triple-stain immunohistochemistry in mouse breast tumors. It counts as in vivo.
From the text: This hypothesis was investigated in the following breast carcinoma models: (i) transgenic MMTV-PyMT mice bearing spontaneous breast tumors, (ii) FVB mice transplanted orthotopically with tumors from MMTV-PyMT donors, and (iii) two patient-derived xenografts (PDX), HT17 and HT33, developed previously in our laboratory (31). […] Treatment of all groups began at the early carcinoma stage (tumor size of ˜0.3 cm) when there is minimal or absent necrosis. It was decided to work with the early-stage PyMT mouse mammary carcinoma model because it more accurately reflects clinically relevant scenarios where most women present with small tumors of <2 cm (32).
as §1, §2
Histology and TMEM Immunohistochemistry. Breast tumors and lungs were isolated, rinsed in PBS, fixed in 10% neutral buffered formalin for 48 hours, dehydrated and embedded in paraffin. Sections (5 μm) were stained with H & E or TMEM triple-stain immunohistochemistry, as previously described (3).

For assay [3], the system named is TMEM. Nature of the assay: Intravital imaging of TMEM-dependent vascular permeability (bursting). It counts as in vivo, mouse. The following applies: co-administration of rebastinib in paclitaxel-treated mice; intravital imaging.
From the text: Paclitaxel Induces TMEM-Dependent Vascular Permeability in Breast Tumors—Given that chemotherapy treatment may affect blood vessel dynamics by inducing angiogenesis (9, 11-13, 35-37), intravital imaging (IVI) (FIG. 2A) was used to investigate whether neoadjuvant paclitaxel induces TMEM-dependent (localized) or TMEM-independent (more universal) blood vessel leakage. […] As also reported previously (1), we never observed any bursting incidents without juxtaposition to a clearly defined TMEM site. Bursting was documented by the accumulation of Dextran-TMR signal over time around an active TMEM site, and no such accumulation was observed away from TMEM (FIGS. 2B-C). The entire time-lapse of these was recorded in videos, respectively. The intensity values from all TMEM-mediated bursting incidents observed in paclitaxel-treated mice were averaged and plotted over the entire time of bursting activity (FIG. 2D), which confirmed the transient nature of paclitaxel-induced TMEM-dependent vascular permeability.
as §1
Intravital Imaging. Intravital imaging was performed using a custom-built two-laser multiphoton microscope, as previously described (57). Mice were anesthetized using 0.75-2.5% isofluorane, depilated. A skin flap procedure, previously developed (58), was performed by exposing the 4th or 5th mammary fat pad. Given the early stage of carcinoma and small tumor size, this necessitated the development of a custom fixturing technique where the exposed tissue was stabilized by affixing the edge of a 10-mm window fitted with an 8-mm clear aperture respectively with cyanoacrylate. The mouse was then placed on a fixturing plate, fitted to the respective window, on the microscope xy stage and imaging was performed in the center of the window away from the glue. The animal was placed in a heated chamber, AirTherm ATX forced air heater (WPI Inc.), maintained at physiologic temperature during the course of imaging, and supplemented with 50-100 uL of PBS per hour via the tail vein catheter. As previously described (1), three milligrams of 155-kDa TMR-dextran (Sigma) were administered via the catheter to visualize the vasculature. All images were reconstructed and analyzed in ImageJ (59), as described in Supplementary Methods.

[4] abbreviates: rebastinib in paclitaxel-treated animals.
Setting [5] is: single agent vs vehicle, PyMT-transplantation and HT17 xenograft.

Regarding `CNC(=O)c1cc(Oc2ccc(NC(=O)Nc3cc(C(C)(C)C)nn3-c3ccc4ncccc4c3)c(F)c2)ccn1` [rebastinib, 4-[4-[(5-tert-butyl-2-quinolin-6-ylpyrazol-3-yl)carbamoylamino]-3-fluorophenoxy]-N-methylpyridine-2-carboxamide], in the assay with circulating tumor cells (setting [4]), the circulating tumor cells result is reported as “decreased circulating tumor cells to the level observed in the control animals”. Besides, the “number of CTCs (TMEM activity)” value in the assay on circulating tumor cells (single agent vs vehicle) is “reduced”. For the same compound, the “number of perivascular Tie2^hi/Vegf^hi macrophages” value in assay [1] (setting [4]) is given as “decreased”. The “density of perivascular Tie2^hi/Vegf^hi macrophages” value in assay [1] (setting [5]) is reported as “did not significantly affect”. In addition, the TMEM assembly result in the assay with TMEM [2] (setting [4]) is given as “without affecting”. For the same compound, the “overall TMEM score (TMEM assembly)” value with TMEM [2] (setting [5]) was “did not significantly affect”. Besides, in the assay with TMEM [3], the frequency of bursting entry was “completely abolished” and the incidence of bursting result is “completely abolished”.

These data come from patent publication US12298308B2, “Neoadjuvant chemotherapy induces breast cancer metastasis through a TMEM-mediated mechanism” (Albert Einstein College of Medicine, priority 2017, dated 2025).
